| Structure (SMILES) | melting point [°C] |
| --- | --- |
| COc1cc(CON=C(CCC(=O)O)c2ccccc2)cc(OC)c1OCc1nc(-c2ccccc2)oc1C | 89 to 90 |
| CN1CCN(C2=Nc3ccccc3Sc3ccccc32)C[C@@H]1CCc1ccccc1 | 44 to 54 |
| CCCCNC(=O)NS(=O)(=O)C(C)=Cc1ccccc1 | 135 to 136 |
| CCN1CCN(c2cccc(Nc3nc4c(-c5ccc(P(C)(C)=O)cc5)cccn4n3)c2)C(=O)C1 | 205 to 207 |
| CCOC(=O)c1ccccc1Nc1ccc(OC)cc1C | 42 to 43 |
| CC1Nc2cc(N(C)C(=O)c3ccc(-c4ccccc4)cc3)ccc2N1C (stereo unspecified) | 213 to 214 |
| OC1(Cc2ccccc2)CCN(CCC#Cc2ccccc2)CC1 | 80 to 82 |
| CCn1c(C(F)(F)F)n[nH]c1=S | 93 |
| O=C(O)c1cncn1C(C1CCCCC1)C1CCCCC1 | 253 |
| O=C(O)CN1C(=O)C(=Cc2c[nH]c3ccccc23)SC1=S | > 300 |
| OCCOc1ccc(-c2nc(-c3ccc(Cl)cc3)nc(-c3ccc(OCCO)cc3O)n2)c(O)c1 | 149 to 150 |
| O=C(O)C1=Cc2cc(I)ccc2OC1C(F)(F)F (stereo unspecified) | 168 to 170 |
| COc1cc(C(C)(C)CNC(=O)c2ccccc2)cc2c1OC(C)(C)C2 | 109 to 110 |
| CC(=O)Nc1cccc(-c2ccnc3c(Cc4ccccc4)cnn23)c1 | 205 to 207 |
| CC(=O)OCCN1C(=O)CN2CCOC2(c2ccccc2F)c2cc(Cl)ccc21 (stereo unspecified) | 120 to 123 |
| CN(C)C1CCc2[nH]c3cc(O)ccc3c2C1 (stereo unspecified) | 286 to 288 |
| COc1ccc(S(N)(=O)=O)cc1C1CO1 (stereo unspecified) | 118 |
| CCCCNC(=S)N1CCc2cc(S(=O)(=O)N3CC(c4ccccc4)NC3=O)ccc21 (stereo unspecified) | 186 to 188 |
| COc1cc2c(c(Cl)c1Cl)C(=O)C(C)(C1CCCC1)C2 (stereo unspecified) | 109 to 112 |
| COc1cc2c(c(N(C(C)=O)C(C)=O)c1)CC(C)O2 (stereo unspecified) | 56 to 57 |
| c1ccc(-c2nnc(-c3ccccn3)o2)cc1 | 127 to 128 |
| COC(=O)CC1=C(C)C(O)c2ccc(C#N)cc21 (stereo unspecified) | 70 to 75 |
| CCCc1c(C(=O)N(C)C)c2ccc(C(N)=O)cc2n1Cc1ccccc1Cl | 213 to 214 |
| CC(c1oc2ccccc2c(=O)c1-c1cccc(F)c1)n1ccc2ncnc(Cl)c21 (stereo unspecified) | 166 to 168 |
| CCC(O)C(O)c1ccc(OCc2ccc3ccccc3c2)c(OC)c1 (stereo unspecified) | 120 |
| Cc1cc(C)cc(-c2nc(CCl)co2)c1 | 76 to 77 |

| Structure (SMILES) | melting point [°C] |
| --- | --- |
| FC(F)(F)c1ccc(-c2cc(Oc3ccc4cccnc4c3)ncn2)c(Br)c1 | 185 to 187 |
| CC(C)N(Cc1ccccc1)C(=O)C(=O)N1CCN(c2ccccc2C(C)(C)C)CC1 | 65 to 68 |
| CCOC(=O)N1Cc2c(n(-c3ccc(F)cc3)c3ccc(F)cc23)C1 | 143 to 145 |
| O=c1cc(C=Cc2ccc(O)cc2)oc(-c2ccccc2)c1 | 198 to 201 |
| ON=C1CCn2c1cc1ccccc12 | > 220 |
| COc1ccc(C(=O)c2ccc(Cl)nc2)cc1OC | 158 to 159 |
| COc1cc2c(cc1C(F)(F)F)N(C(=O)Nc1cccc(C(=O)Nc3cccnc3)c1)CC2 | > 220 |
| CC(=NOCCOc1ccc(CC2SC(=O)NC2=O)cc1)c1ccc2ccccc2c1 (stereo unspecified) | 138 to 139 |
| CNC(=O)ON=C(C)SC(C)C(N)=O (stereo unspecified) | 161 to 163 |
| O=c1c(Cc2ccccc2)c2n(c(=O)n1CCCCSc1cccc3nccn13)CCCS2(=O)=O | 53 to 54 |
| CCn1ncc2c(O)c(CCc3ccccc3)c(C)nc21 | 251 to 256 |
| COCc1cc2c(Nc3cccc(Cl)c3)ncnc2[nH]1 | 226 to 230 |
| CCOC(=O)c1cn(CC2CC2)c2cc(-n3cccc3)c(F)cc2c1=O | 125 to 127 |
| N#Cc1ccc(NC(=S)NCc2cccnc2)cc1 | 181 |
| O=C(CC12CC3CC(CC(C3)C1)C2)Nc1cccc2[nH]ccc12 | 211 to 213 |
| COC(OC)C1CN=C(c2cc3cccc(NS(=O)(=O)c4ccccn4)c3[nH]2)S1 (stereo unspecified) | 153 |
| COc1ccc(CN(C)CCCc2ccc(NC(=O)c3[nH]c4ccccc4c3C(=O)c3ccccc3)cc2)cc1OC | 156 to 161 |
| CCOC(=O)C1=C(C)NC(COC(C)=O)=C(C(=O)OCC)C1c1ccccc1OC (stereo unspecified) | 84 to 86 |
| Cc1ccc([N+](=O)[O-])cc1S(=O)(=O)N(C)C | 72 to 74 |
| O=C(Nc1ccc(Cl)cc1)C(Cl)CCl (stereo unspecified) | 128 to 129 |
| O=C1Nc2cccc(F)c2C(=O)N2CC[C@@H]12 | 232 to 234 |
| COc1cc(C(C)C)c2c(c1)S(=O)(=O)N(COC(=O)c1sccc1Cl)C2=O | 138 to 140 |
| COc1ccc(-c2ccc(C(=O)CCC(=O)O)cc2)cc1 | 197 to 199 |
| O=[N+]([O-])c1cc(Cl)ccc1-n1cccc1 | 55 to 56 |
| CC1(C)CS(=O)(=O)CC(C)(C)N1N | 122 |
| COc1ccc(C(C)(C)C)c(O)c1C(=O)Nc1ccc(S(=O)(=O)C(F)(F)F)cc1Cl | 198 to 199 |

| Structure (SMILES) | melting point [°C] |
| --- | --- |
| CC(C)C(=O)Oc1ccc2c(c1)CCC1C2CCC2(C)C1CC(O[Si](C)(C)C(C)(C)C)C2OC(=O)C(C)C (stereo unspecified) | 114 |
| COCC1OC(n2cnc3c(NC4CCCC4)nc(Cl)nc32)C(O)C1O (stereo unspecified) | 124 to 126 |
| COc1ccc(C=Cn2ncc3ccccc3c2=O)cc1 | 267 to 269 |
| Nc1cccc2c(-c3ccc(=O)[nH]n3)c(-c3ccccc3)nn12 | 157 to 159 |
| NS(=O)C12CC3CC(CC(C3)C1)C2 (stereo unspecified) | 139 to 141 |
| CN(C)C1(c2ccccc2)CCC(c2[nH]c3ccccc3c2CC2CCCCC2)CC1 (stereo unspecified) | 195 to 198 |
| NS(=O)(=O)c1ccc(F)c(C(O)CCl)c1 (stereo unspecified) | 112 |
| O=C(O)Cc1csc(NC(=O)C(Oc2ccc(F)cc2)c2ccc(S(=O)(=O)C3CC3)cc2)n1 (stereo unspecified) | 72 to 73 |
| c1ccc(CN2CC3(COc4cc5c(cc43)CCO5)c3c(-c4cncnc4)cccc32)nc1 (stereo unspecified) | > 200 |
| O=C(O)/C=C/c1ccc(-c2nc3c(=O)n(Cc4ccccc4)c(=O)n(Cc4ccccc4)c3[nH]2)cc1 | > 300 |
| O=c1cc(C(F)(F)F)nc(ON=C2CCCC2)n1-c1cc(Oc2ccccc2[N+](=O)[O-])c(Cl)cc1F | 76 to 78 |
| Cc1nc(N2CCN(Cc3ccc(F)c(F)c3)C2=O)sc1C(N)=O | 221 to 223 |
| CCCCCCCCCCCCCCCCCCN(CCCCCCCCCCCCCCCCCC)Cc1ccc(CN(CCO)CCO)cc1 | 49 to 50 |
| Cn1c2cc(Cl)ccc2c2c(CC#N)nn(-c3ccccc3)c(=O)c21 | 305 to 315 |
| Cc1cccc(NC(=O)NC2N=C(c3ccccc3F)c3ccccc3N(CC(=O)O)C2=O)c1 (racemic) | 167 to 169 |
| CCN1CN(C)CN(c2cc(Cl)ccc2C)C1=S | 129 to 131 |
| O=C(Nc1nc(=O)c2cnn3c2n1CC=C3c1cccc(C(F)(F)F)c1)C(F)(F)F | 184 to 185 |
| NC(=O)CNC(=O)c1cncc(-c2cccc3cc(Cc4cc(F)cc(Cl)c4)sc23)c1 | 176 to 177 |
| O=C1CC(Br)CCCCCCCCCN1 (stereo unspecified) | 155 to 157 |
| Nc1ncc(Sc2ncccc2O)s1 | 128 to 130 |
| CCOC(=O)C(C(=O)Nc1cc(OC)c(OC)c(OC)c1)(c1ccccc1)c1ccccc1 | 109 to 111 |
| Cc1ccc2c3c(ccc2n1)OC[C@H](CNC[C@@H]1CCc2[nH]c4ccc(F)cc4c2C1)O3 | 89 to 93 |
| C=CCC(CC=C)(C(=O)NO)S(=O)(=O)c1ccc(OC)cc1 | 114 to 116 |
| COC(=O)c1ccc(-c2nc(-c3cccc(Cl)c3)cs2)cc1 | 150 to 151 |
| O=C(c1ccccc1)C(O)CC(Cl)CCCl (stereo unspecified) | 39 to 41 |
| CC(C)(C)c1nc(CO)c[nH]1 | 212 to 221 |

| Structure (SMILES) | melting point [°C] |
| --- | --- |
| C[C@@H](n1cnc2cc(-c3ccc(C=NNO)cc3)sc2c1=O)[C@](O)(Cn1cncn1)c1ccc(F)cc1F | 246 to 247 |
| N#Cc1cc(F)c(N)c(F)c1 | 110 to 111 |
| CC(C(=O)O)c1ccc2sc3ncccc3c(=O)c2c1 (stereo unspecified) | 206 to 208 |
| CCOC(=O)C(=O)Nc1ccc(Br)c2cccnc12 | 152 |
| CC1CCC(=NNc2ccccc2)c2ncc(C(N)=O)c(=O)n21 (stereo unspecified) | 246 to 247 |
| Cc1oc(-c2ccccc2)nc1COc1ccc(CO)nc1 | 125 to 126 |
| CCOC(=O)c1cc(-c2csc(-c3ccnc(NC)c3)n2)c(=O)[nH]c1C(C)C | > 230 |
| CCN(CC)C(=O)Oc1nc(-c2ccccc2)nc2ccccc12 | 54 |
| C#CCN(c1nnc(C)c2ccccc12)c1nc2ccccc2n1-c1ccccc1 | 50 to 53 |
| CC(C)c1ccc(NN)c(Cl)c1 | 64 to 66 |
| COc1ccc(C)c(N2CCN(C(=O)N(C)c3cc(C)c(C)nc3OC)CC2)c1 | 91 to 93 |
| C[C@@H](NC(=O)c1c[nH]c2ncc(-c3nn(C)c4cc(Cl)cc(F)c34)nc12)C(=O)N1CC(C#N)C1 | 267 to 268 |
| O=S1N=C(NCCCN(Cc2ccccc2)c2ccccn2)C(NCc2ccncc2)=N1 (stereo unspecified) | 140 to 142 |
| Cc1nc2ccc(Cl)cn2c(=O)c1CCN1CCN(c2cccc(Cl)c2)CC1 | 152 to 154 |
| CCN(C(=O)OC)c1c(C(=O)c2cnoc2C2CC2)ccc(S(C)(=O)=O)c1Cl | 128 to 131 |
| C[C@@H](F)c1nc(N)nc(N[C@@H]2CCOc3ccccc32)n1 | 110 to 112 |
| O=C(O)c1cc(NCc2c(F)c(F)c(C(F)(F)F)c(F)c2F)ccc1OC(F)(F)F | 38 |
| CNC(=O)Cc1c(C)n(-c2ccnc3cc(Cl)ccc23)c2ccc(OC)cc12 | 168 to 169 |
| N#Cc1ccc(C(=O)NC(=S)NC2CC2)cc1 | 151 to 152 |
| COn1c(C(C)(C)C)nc2c(N)nc3ccccc3c21 | 195 to 197 |
| C=CCn1c(=O)c2c(nc(/C=C/c3cc(OC)c(O)c(OC)c3)n2C)n(CC=C)c1=O | 239 to 240 |
| CC(C)Nc1cccnc1N1CCN(C(=O)c2ccc(C(=O)NC(C)(C)C)cn2)CC1 | 161 to 162 |
| COC(=O)c1cccc(Sc2ccccc2)c1S(C)(=O)=O | 151 |
